Reference: PMC3390344, “Antibacterial Activity and Mechanism of a Scorpion Venom Peptide Derivative In Vitro and In Vivo” (PLoS ONE, 2012)
Ends that are not written are not given here.

How the values were obtained:
[1] = test system: S. aureus AB94004; assay type: cell-based; details: for MIC S.aureus, substance alone: controls of the competition assay (Figure 7C): untreated peptide, or LTA / LPS alone
Experimental: To confirm the results of the BLI titrations, 250 µg/mL of Kn2-7 or BmKn2 was mixed with an equal volume of 1 mg/mL LTA or LPS. Then, the MICs of Kn2-7 or BmKn2 mixed with LTA against S. aureus and E. coli were measured. […] The MICs of Kn2-7 and BmKn2 treated with LTA against S. aureus were 25 and 12.5 µg/mL, respectively.
A total of 250 µg/mL of each peptide solution was mixed with an equal volume of 1 mg/mL of the LTA or LPS solution. Then, the MICs of BmKn2 and Kn2-7 treated with LTA or LPS against S. aureus AB94004 and E. coli AB94012 were measured.

[2] = test system: E. coli AB94012; experiment: Growth inhibitory assay (growth curves); assay type: cell-based; details: at a concentration of 6.25 µg/mL; Figure 2C
Experimental: (§1) Figure 2 Gowth inhibitory activities of Kn2-7. (A) Growth curves of S. aureus AB94004 treated with Kn2-7, BmKn2 or antibiotics. (B) Growth curves of MRSA P1386 treated with Kn2-7, BmKn2 or antibiotics. (C) Growth curves of E. coli AB94012 treated with Kn2-7, BmKn2 or antibiotics.
(§2) The time growth curves of S. aureus and MRSA treated with BmKn2 or its derivatives were determined based on measurements taken at 630 nm at each time point. Different concentrations of peptide were added to the tested strains, which were cultured in 96-well plates using the same method as was used for determining the MIC.

[3] = test system: S. aureus AB94004; experiment: Growth inhibitory assay (growth curves); assay type: cell-based; details: at a concentration of MICs; measurements at 630 nm, 96-well plates; Figure 2A
Experimental: as §1, §2

[4] = test system: MRSA P1386; experiment: Growth inhibitory assay (growth curves); assay type: cell-based, S. aureus; details: measurements at 630 nm, 96-well plates; Figure 2B
Experimental: as §1, §2

[5] = Biolayer interferometry; assay type: binding, S. aureus; details: 10 µg/mL biotinylated peptide on biosensor tips, 500 µg/mL LTA, 10 mM HEPES pH 7.4, 0.14 M NaCl, 30°C
Experimental: Figure 7 Binding assay of Kn2-7 and LTA or LPS. (A) Interaction of 10 µg/ml of Kn2-7 with 500 µg/ml of LPS or 500 µg/mL of LTA. Curve A3 is LPS, curve B3 is LTA and curve C3 is buffer. (B) Interaction of 10 µg/mL of BmKn2 with 500 µg/mL of LPS or 500 µg/mL of LTA. Curve D3 is LPS, curve E3 is LTA and curve F3 is the buffer. (C) MICs of Kn2-7 and BmKn2 treated with LTA or LPS against S. aureus and E. coli.
Biolayer Interferometry (BLI) experiments were performed on OCT RED (FortéBio, Inc.). A total of 500 µg/mL of lipoteichoic acid from S. aureus (LTA, Sigma, L2515), lipopolysaccharides from E. coli (LPS, Sigma, L2880) or buffer (10 mM HEPES, pH 7.4 and 0.14 M NaCl) was dispensed into 96-well microtiter plates at a volume of 200 µl per well. The operating temperature was 30°C. Biosensor tips (FortéBio, Inc., Menlo Park, CA) were pre-wetted with the buffer for 60 seconds at baseline. Then, 10 µg/mL Biotin-Kn2-7 or Biotin-BmKn2 was loaded onto the biosensor tips for 900 seconds. Baseline 2 was subsequently established for 300 seconds. Dissociation of Kn2-7 or BmKn2 occurred for 900 seconds in the buffer. Data were generated automatically by the Octet® User Software (version 3.1) and were subsequently analyzed from the resultant text files using Excel 2000.

[6] = test system: E. coli AB94012; experiment: Enzyme release assay (catalase); assay type: cell-based; details: E. coli AB94012, 37°C; 0.9% saline negative control; Figure 4D
Experimental: (§3) Figure 4 Secondary structure and enzyme release assay of Kn2-7. (A) and (B) Secondary structure analysis of the Kn2-7 and BmKn2 peptides. (A) Circular dichroism spectra of 0.1 mg/mL of Kn2-7 in water, 30% TFE/H2O or 70% TFE/H2O. (B) Circular dichroism spectra of 0.1 mg/mL of BmKn2 in water, 30% TFE/H2O or 70% TFE/H2O. (C) and (D) Enzyme release assay. (C) S. aureus AB94004 treated with Kn2-7 or BmKn2 was harvested, and the catalase activities of the supernatants were measured; 0.9% saline was used as the negative control, and ampicillin sodium was used as the antibiotic control. (D) E. coli AB94012 treated with Kn2-7 or BmKn2 was harvested, and the catalase activities in the supernatants were measured; 0.9% saline was used as the negative control, and kanamycin was used as the antibiotic control.
(§4) Bacterial suspensions and serial-diluted peptides were mixed at a ratio of 4∶1 in different tubes with a final volume of 2 ml. The mixtures were then incubated at 37°C with continuous shaking. At each time point, 200 µl of the treated bacterial suspension was transferred to sterilized tubes. After centrifugation, the supernatants were transferred to a sterilized 1.5-ml tube, and catalase activity was measured with a Catalase Assay Kit (Beyotime, Jiangsu, China) using the method for measuring peroxidase activity.

[7] = test system: S. aureus AB94004; experiment: Enzyme release assay (catalase); assay type: cell-based; details: S. aureus AB94004, 37°C; 0.9% saline negative control; Figure 4C
Experimental: as §3, §4

[8] = test system: E. coli AB94012; experiment: Bactericidal assay (time-killing); assay type: cell-based; details: samples at 0, 5, 15, 30, 60 min, colony counts, average of three dishes
Experimental: Figure 5 Bactericidal assays of the Kn2-7 and BmKn2 peptides against S. aureus and E. coli AB94012. Set point indicates untreated bacteria, and 0 minutes was defined as the time of the first sample collection, which was immediately after mixing bacteria and Kn2-7 or BmKn2. The other samples were collected at 5 min, 15 min, 30 min or 60 min. All of the counts were the average of three dishes, and the experiment was repeated at least three times. (A) Time-killing curve of Kn2-7 against S. aureus AB94004. (B) Time-killing curve of BmKn2 against S. aureus AB94004. (C) Time-killing curve of Kn2-7 against E. coli AB94012.
Bactericidal curves for Kn2-7 and BmKn2 were determined against S. aureus AB94004 and E. coli AB94012. A 400 µl aliquot of the peptide solution was added to 1,600 µl of a bacterial suspension. At each time point, 200 µl of the treated bacterial suspension was transferred to a sterilized 1.5-ml tube. After centrifugation at 1,000×g for 5 min, the supernatant was removed, and the pellet was resuspended in 200 µl of LB medium. The bacterial suspensions were placed on agar plates and incubated at 37°C until viable colonies could be counted.

Substance	MIC S.aureus, peptide treated with LPS ([1]; 250 µg/mL peptide mixed with equal volume of 1 mg/mL LPS)	MIC S.aureus, peptide treated with LTA ([1]; 250 µg/mL peptide mixed with equal volume of 1 mg/mL LTA)	MIC S.aureus, substance alone [1]	Growth inhibition of E. coli AB94012 (growth curve) [2]	Growth inhibition of S. aureus (growth curve) [3]	Growth inhibition of MRSA P1386 (growth curve) [4]	Binding to LTA (BLI) [5]	Catalase activity of the supernatant over time [6]	Catalase activity of the supernatant over time [7]	Bactericidal effect (time-killing curve) [8]
FIGAIARLLSKIF-NH2 [BmKn2]	6.25 µg/mL	12.5 µg/mL	6.25 µg/mL	had no effect against E. coli AB94012	inhibited the growth of S. aureus completely	inhibited the growth of MRSA P1386 completely	bound strongly	low catalase activity at each time point	almost the same catalase activity at each time point	not able to kill E. coli AB94012
FIKRIARLLRKIF [Kn2-7]			3.13 µg/mL	inhibited the growth of E. coli AB94012	inhibited the growth of S. aureus completely	inhibited the growth of MRSA P1386 completely	bound strongly	nearly the same high enzymatic activity at each time point	almost the same catalase activity at each time point	able to kill E. coli AB94012 rapidly
